Values quoted from earlier work, collected in patent US9636407B2, “Caspofungin acetate formulations” (priority 2012, dated 2017).

Experiments:
[1] = background statement
[2] = CANCIDAS prescribing information

For “1-[(4R,5S)-5-[(2-aminoethyl)amino]-N^2-(10,12-dimethyl-1-oxotetradecyl)-4-hydroxy-L-ornithine]-5-[(3R)-3-hydroxy-L-ornithine]pneumocandin B0 diacetate (salt) [caspofungin acetate]”, the oral bioavailability [1] is given as “poor” and the “pH of a saturated solution in water” value [2] is given as “about 6.6”.
